Experimental data: publication PMC12663137 (Nature Communications, 2025)
“And” between values parts separate entries of the source, which are not always exact repeats. Equal entries are not always repeated.

How the values were obtained:
SV2A [1] = target: T1, SV2A (Homo sapiens, UniProt Q7L0J3); assay: Steady-state (saturation) binding of 3H-UCB-J with 30 µM UCB1244283 or 1% DMSO (Fig. 4A)
T1 construct: expressed in transfected cells; host or cells: HEK293 (ATCC CRL-1573), crude membranes
Protocol: (§1) Ligand binding studies were carried out using crude membranes prepared from HEK293 cells (ATCC, CRL-1573) overexpressing mVenus-SV2AWT or SV2AEM. Membranes were prepared either from transiently transfected cells or from baculovirus-infected cells as described previously. Cells were washed with DPBS (Ca^2+ and Mg^2+ free), followed by resuspending in cold SH buffer (10 mM HEPES-Tris pH 7.4, 320 mM sucrose) containing protease inhibitor cocktail (MedChemExpress) to a density of 10^7 cells/ml. This cell suspension was homogenized by passing through a bead homogenizer (Isobiotec) with 10-micron clearance bead on ice. The lysate was then centrifuged at 4000 × g for 5 min at 4 °C, and the supernatant was aliquoted, frozen in liquid nitrogen, and stored at −80 °C. The mVenus fluorescence estimated using fluorescence size-exclusion chromatography (FSEC) was used to normalize expression levels of mVenus-SV2A mutants studied as detailed previously. For all binding studies, membranes containing […] protein (estimated by BCA method) per reaction were used.
(§2) An equal volume of dimethyl sulfoxide (DMSO) was added to control reactions. Reactions were arrested after 2 h by trapping the membranes on a Unifilter-GF/C 96-well filter plate pre-soaked with 0.1%(w/v) polyethyleneimine. Membranes were washed four times with 0.2 ml of cold binding buffer, dried, and 40 µl of scintillation liquid was added to each well. Radioactivity was monitored in MicroBeta2 plate counter. Residual binding observed in presence of either 10 µM ^1H-UCB-J or 10 µM ^1H-padsevonil was considered as background and subtracted from total binding. Estimates for Kd and Bmax were obtained by fitting the data to one site-specific binding curve using GraphPad Prism 10.

SV2A [2] = target: T1, SV2A; assay: Reduction of 3H-padsevonil (50 nM) binding by UCB1244283 (Fig. 5F); details: for 3H-Padsevonil binding (%): no UCB1244283 = 100%
Protocol: Binding observed with SV2AWT was defined as 100%. Data are shown as mean ± s.d.; n = 6 biological replicates. […] Data are shown as mean ± s.d.; n = 6 biological replicates. Significance values were obtained from ordinary one-way ANOVA test (n.s. not significant; **p-value = 0.0064; ****p-value < 0.0001). Source data for (C, F) are provided as a Source data file.
as §1

SV2A WT and mutants [3] = assay: Modulatory effect of 30 µM UCB1244283 on 3H-UCB-J binding, effect of mutations (Fig. 4D); set-up: species or system human; details: Phe188, Tyr461 or Ser601 mutated to alanine
Protocol: (§3) Data are shown as mean ± s.d.; n = 6 biological replicates. […] Data are shown as mean ± s.d.; n = 6 biological replicates. […] Residual binding observed at 70 min was defined as 0%. For WT, data are shown as mean ± s.d. […] For the DMSO group, data are shown as mean ± s.d. (n = 4 biological replicates); for the other groups, data are shown as mean (n = 2). Source data for (A, D, E, F) are provided as a Source data file.
as §1, §2

SV2A WT and mutants [4] = target: T2, SV2A WT and mutants (Homo sapiens, UniProt Q7L0J3, L655Q); assay: as above; details: L655Q
T2 construct: expressed in transfected cells; host or cells: HEK293 (ATCC CRL-1573), crude membranes
Protocol: as §3, §1, §2

SV2A WT and mutants [5] = target: T3, SV2A WT and mutants (Homo sapiens, UniProt Q7L0J3, L655A); assay: as above; details: L655A
T3 construct: expressed in transfected cells; host or cells: HEK293 (ATCC CRL-1573), crude membranes
Protocol: as §3, §1, §2

SV2A WT and mutants [6] = target: T4, SV2A WT and mutants (Homo sapiens, UniProt Q7L0J3, M301A); assay: as above; details: M301A; 30 µM; enhancement in SV2AWT defined as 100%
T4 construct: expressed in transfected cells; host or cells: HEK293 (ATCC CRL-1573), crude membranes
Protocol: as §3, §1, §2

[7] = test system: tonic and clonic convulsions; set-up: method as in Daniels et al., Br J Pharmacol. 2013; details: UCB1244283 alone; ref Daniels et al., Br J Pharmacol. 2013; cited from earlier work
SV2AEM = target: T5, SV2AEM (Homo sapiens, UniProt Q7L0J3); assay: Association kinetics of 3H-UCB-J after pre-incubation with UCB1244283 (Fig. 4F); format: binding
T5 construct: expressed in transfected cells; host or cells: HEK293 (ATCC CRL-1573), crude membranes (transient transfection or baculovirus)
Protocol: as §1
Residual radioligand binding observed in presence of 10 µM of ^1H-UCB-J was considered as background binding.

[8] = Solubility remark (cryo-EM sample preparation); format: physicochemical; details: concentration could not be increased further
Text: convulsions (Daniels V, Wood M, Leclercq K, Kaminski RM, Gillard M. Modulation of the conformational state of the SV2A protein by an allosteric mechanism as evidenced by ligand binding assays. Br J Pharmacol. 2013 […]
understanding of how USC1244283 modulates the binding of antiseizure drugs to SV2A, the cryo-EM structure of an SV2A-UCB1244283 complex should be determined. […]
allosteric site or also the primary binding site? Are there conformational changes without BRV or UCB-J […]
In our original submission, we mentioned our unsuccessful attempt to determine the structure of the SV2A– […]
These observations are consistent with the allosteric site not being well formed (i.e., very low aƯinity) in unliganded SV2A; orthosteric ligand binding induces the formation of the allosteric site (increased aƯinity).
We have expanded the text to make these points clearer. […]
endogenous substrate is bound to the transporter, or from other oƯ-target eƯects.
- Like reported for BRV in the above-mentioned preprint, UCB1244283 prevents dissociation of UCB-J by blocking the luminal gate. […] I think such […]
experiments are important to obtain further insights into the action of UCB1244283. […]
the orthosteric site and the vesicular lumen. […]
accessing the orthosteric site, and we have included additional discussion in the revision.
(1 picture or pasted object on this page, not shown here)

T1 sequence (Q7L0J3 whole entry): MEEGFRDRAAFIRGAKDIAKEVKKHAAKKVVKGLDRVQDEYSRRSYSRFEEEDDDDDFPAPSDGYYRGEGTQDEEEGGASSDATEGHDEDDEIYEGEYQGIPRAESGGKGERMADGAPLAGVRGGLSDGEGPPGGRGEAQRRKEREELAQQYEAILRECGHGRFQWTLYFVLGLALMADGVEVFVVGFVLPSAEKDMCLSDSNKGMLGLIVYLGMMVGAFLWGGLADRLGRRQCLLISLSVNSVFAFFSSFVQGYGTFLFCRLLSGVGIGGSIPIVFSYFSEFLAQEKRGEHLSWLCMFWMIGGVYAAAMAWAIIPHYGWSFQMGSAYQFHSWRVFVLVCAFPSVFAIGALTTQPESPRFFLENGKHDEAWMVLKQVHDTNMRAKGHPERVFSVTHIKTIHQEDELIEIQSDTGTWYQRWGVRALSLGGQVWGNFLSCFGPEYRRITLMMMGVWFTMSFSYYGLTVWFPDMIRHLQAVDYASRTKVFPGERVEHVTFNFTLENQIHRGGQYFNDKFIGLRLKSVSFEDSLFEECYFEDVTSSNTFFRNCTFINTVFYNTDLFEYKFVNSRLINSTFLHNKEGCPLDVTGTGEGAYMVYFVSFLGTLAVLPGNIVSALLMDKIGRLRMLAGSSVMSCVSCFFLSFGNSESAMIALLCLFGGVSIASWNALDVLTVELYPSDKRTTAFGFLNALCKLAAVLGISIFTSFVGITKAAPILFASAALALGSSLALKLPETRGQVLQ
T4 sequence (Q7L0J3 whole entry M301A): as the sequence (Q7L0J3 whole entry) above, with M301A counted along it
T5 sequence (Q7L0J3 141-742): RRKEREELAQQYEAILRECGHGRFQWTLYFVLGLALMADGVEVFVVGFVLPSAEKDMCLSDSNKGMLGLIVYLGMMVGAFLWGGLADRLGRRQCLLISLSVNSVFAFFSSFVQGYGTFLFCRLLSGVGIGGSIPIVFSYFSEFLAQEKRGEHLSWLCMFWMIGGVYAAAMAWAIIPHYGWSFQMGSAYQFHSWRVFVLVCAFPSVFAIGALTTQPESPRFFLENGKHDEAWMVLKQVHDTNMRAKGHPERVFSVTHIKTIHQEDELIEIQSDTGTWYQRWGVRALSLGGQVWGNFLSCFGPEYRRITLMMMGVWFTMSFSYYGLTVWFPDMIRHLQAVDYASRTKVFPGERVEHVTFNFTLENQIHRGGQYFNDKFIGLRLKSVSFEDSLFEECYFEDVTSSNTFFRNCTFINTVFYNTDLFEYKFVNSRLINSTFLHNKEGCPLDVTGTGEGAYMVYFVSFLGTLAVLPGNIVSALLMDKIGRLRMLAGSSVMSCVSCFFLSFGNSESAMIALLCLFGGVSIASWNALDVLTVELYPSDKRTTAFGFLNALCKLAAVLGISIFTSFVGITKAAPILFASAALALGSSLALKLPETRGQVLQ
T2 sequence (Q7L0J3 whole entry L655Q): as the sequence (Q7L0J3 whole entry) above, with L655Q counted along it
T3 sequence (Q7L0J3 whole entry L655A): as the sequence (Q7L0J3 whole entry) above, with L655A counted along it

With `COc1ccccc1NC(=O)CC(C)Cc1cc(C)cc(C)c1` (centres unmarked) [UCB1244283] as the compound, how does the “3H-UCB-J Binding (f.mol/assay)” value (SV2A [1]; 3H-UCB-J 0.78 nM) read?
Its value is 6 f.mol/assay and 7 f.mol/assay.

And the “3H-UCB-J Binding (f.mol/assay)” value (SV2A [1]; 3H-UCB-J 1.56 nM)?
Its value is 11 f.mol/assay and 8 f.mol/assay and 10 f.mol/assay and 13 f.mol/assay and 14 f.mol/assay.

And the “3H-UCB-J Binding (f.mol/assay)” value (SV2A [1]; 3H-UCB-J 6.25 nM)?
The value was 35 f.mol/assay and 45 f.mol/assay and 39 f.mol/assay and 44 f.mol/assay and 54 f.mol/assay.

And the “3H-UCB-J Binding (f.mol/assay)” value (SV2A [1]; 3H-UCB-J 12.50 nM)?
Its value is 66 f.mol/assay and 56 f.mol/assay and 69 f.mol/assay and 73 f.mol/assay and 70 f.mol/assay and 60 f.mol/assay.

What about the “3H-UCB-J Binding (f.mol/assay)” value (SV2A [1]; 3H-UCB-J 25.00 nM) of the same compound?
Its value is 90 f.mol/assay and 106 f.mol/assay and 118 f.mol/assay and 84 f.mol/assay and 111 f.mol/assay.

And the “3H-UCB-J Binding (f.mol/assay)” value (SV2A [1]; 3H-UCB-J 50.00 nM)?
Its value is 82 f.mol/assay and 91 f.mol/assay and 128 f.mol/assay and 130 f.mol/assay and 116 f.mol/assay and 122 f.mol/assay.

And the “3H-UCB-J Binding (f.mol/assay)” value (SV2A [1]; 3H-UCB-J 100.00 nM)?
Its value is 104 f.mol/assay and 70 f.mol/assay and 121 f.mol/assay and 105 f.mol/assay and 88 f.mol/assay and 115 f.mol/assay.

What about the “displacement of padsevonil from SV2A” value (SV2A [2]) of the same compound?
The value was “can displace padsevonil from SV2A in a dose-dependent manner”.

And the “3H-Padsevonil binding (%)” value (SV2A [2]; UCB1244283 10 μM)?
Its value is 91.0284% and 102.553% and 101.386% and 86.5062% and 91.3202%.

And the “3H-Padsevonil binding (%)” value (SV2A [2]; UCB1244283 30 μM)?
The value was 87.2356% and 88.6944% and 95.6966% and 92.1955% and 71.6265% and 83.5886%.

What about the “3H-Padsevonil binding (%)” value (SV2A [2]; UCB1244283 50 μM) of the same compound?
The value was 81.1087% and 81.984% and 86.5062% and 85.6309% and 65.7914% and 73.0853%.

What about the “3H-Padsevonil binding (%)” value (SV2A [2]; UCB1244283 100 μM) of the same compound?
Its value is 69.7301% and 72.0642% and 78.9205% and 76.5864% and 67.5419%.

And the “3H-Padsevonil binding (%)” value (SV2A [2]; UCB1244283 500 μM)?
Its value is 70.4595% and 69.4384% and 72.6477% and 70.0219% and 59.2268% and 71.4807%.

What about the “allosteric potentiation of 3H-UCB-J binding” value (SV2A WT and mutants [3]) of the same compound?
The value was “loss of allosteric potentiation”.

What about the “allosteric modulation of 3H-UCB-J binding” value (SV2A WT and mutants [4]) of the same compound?
Its value is “abolished allosteric modulation”.

And the “allosteric modulation of 3H-UCB-J binding” value (SV2A WT and mutants [5])?
Its value is “did not impair modulation”.

What about the “UCB1244283 modulation (%)” value (SV2A WT and mutants [6]) of the same compound?
The value was 204.26% and 178.72% and 164.89% and 193.57% and 161.39% and 224.53% and 226.42%.

What about the effect against convulsions [7] of the same compound?
The effect against convulsions was “clear protective effect against tonic and clonic convulsions”.

What about the “3H-UCB-J Binding (%)” value (SV2AEM; pre-incubate 10 μM UCB1244283, 0 min) of the same compound?
Its value is 0.02% and 0.00168%.

What about the “3H-UCB-J Binding (%)” value (SV2AEM; pre-incubate 10 μM UCB1244283, 0.5 min) of the same compound?
The value was 0.16% and 0.14%.

What about the “3H-UCB-J Binding (%)” value (SV2AEM; pre-incubate 10 μM UCB1244283, 1 min) of the same compound?
The value was 0.20% and 0.18%.

And the “3H-UCB-J Binding (%)” value (SV2AEM; pre-incubate 10 μM UCB1244283, 1.5 min)?
Its value is 0.16% and 0.22%.

And the “3H-UCB-J Binding (%)” value (SV2AEM; pre-incubate 10 μM UCB1244283, 2 min)?
Its value is 0.23% and 0.25%.

What about the “3H-UCB-J Binding (%)” value (SV2AEM; pre-incubate 10 μM UCB1244283, 2.5 min) of the same compound?
Its value is 0.16% and 0.30%.

What about the “3H-UCB-J Binding (%)” value (SV2AEM; pre-incubate 10 μM UCB1244283, 3 min) of the same compound?
The value was 0.29% and 0.33%.

What about the “3H-UCB-J Binding (%)” value (SV2AEM; pre-incubate 10 μM UCB1244283, 3.5 min) of the same compound?
Its value is 0.30% and 0.35%.

What about the “3H-UCB-J Binding (%)” value (SV2AEM; pre-incubate 10 μM UCB1244283, 4 min) of the same compound?
Its value is 0.29% and 0.36%.

What about the “3H-UCB-J Binding (%)” value (SV2AEM; pre-incubate 10 μM UCB1244283, 4.5 min) of the same compound?
Its value is 0.41% and 0.37%.

And the “3H-UCB-J Binding (%)” value (SV2AEM; pre-incubate 10 μM UCB1244283, 5 min)?
The value was 0.39%.

And the “3H-UCB-J Binding (%)” value (SV2AEM; pre-incubate 30 μM UCB1244283, 0 min)?
Its value is 0.00112% and 0.00142%.

And the “3H-UCB-J Binding (%)” value (SV2AEM; pre-incubate 30 μM UCB1244283, 0.5 min)?
Its value is 0.10%.

And the “3H-UCB-J Binding (%)” value (SV2AEM; pre-incubate 30 μM UCB1244283, 1 min)?
The value was 0.11%.

What about the “3H-UCB-J Binding (%)” value (SV2AEM; pre-incubate 30 μM UCB1244283, 1.5 min) of the same compound?
Its value is 0.13% and 0.12%.

What about the “3H-UCB-J Binding (%)” value (SV2AEM; pre-incubate 30 μM UCB1244283, 2 min) of the same compound?
Its value is 0.14%.

What about the “3H-UCB-J Binding (%)” value (SV2AEM; pre-incubate 30 μM UCB1244283, 2.5 min) of the same compound?
Its value is 0.14% and 0.15%.

What about the “3H-UCB-J Binding (%)” value (SV2AEM; pre-incubate 30 μM UCB1244283, 3 min) of the same compound?
The value was 0.15%.

And the “3H-UCB-J Binding (%)” value (SV2AEM; pre-incubate 30 μM UCB1244283, 3.5 min)?
Its value is 0.14% and 0.15%.

What about the “3H-UCB-J Binding (%)” value (SV2AEM; pre-incubate 30 μM UCB1244283, 4 min) of the same compound?
The value was 0.16%.

And the “3H-UCB-J Binding (%)” value (SV2AEM; pre-incubate 30 μM UCB1244283, 4.5 min)?
The value was 0.22% and 0.16%.

And the “3H-UCB-J Binding (%)” value (SV2AEM; pre-incubate 30 μM UCB1244283, 5 min)?
Its value is 0.23% and 0.19%.

What about the solubility [8] of the same compound?
Its solubility is “poor solubility”.
